In US20240228536A1, “PEPTIDES FOR USE IN SKIN AND HAIR PIGMENTATION” (Follicum AB, priority 2020, published 2024):

Key:
[1] = system: skin equivalents (SEs); test: H&E and Warthin Starry staining of skin equivalents; type: cell-based, human; conditions: day 20
From the text: Two skin equivalents (SEs) were used from one donor.
The analysis was achieved using the Warthin Starry assay using our recently published method (Joly-Tonetti et al 2016) and hematoxylin&eosin (H&E) staining.
The SEs were stained with Warthin Starry stain to visualise and quantify the melanin in sections. The SEs were removed from culture on day 20 and washed in PBS. They were then flash frozen in liquid nitrogen and mounted in OCT for sectioning. 10 μm sections were cut using a cryostat, the sections collected on slides and fixed in Acetone for 10 mins. The OCT was removed from the section by washing in acidulated water for 20 mins. The slides were then incubated in 1% silver nitrate solution for 1 hour at 43° C. […] The slides were stained for 2 mins then the staining was stopped by running the slides under hot tap water. Slides were then mounted using Histomount. Brightfield images were captured using a Nikon Eclipse microscope. Image analysis of the melanin density in sections was performed using Image J and densitometric thresholding. Results are presented in pixel intensity units. For the hematoxylin&eosin (H&E) staining, the SEs were flash frozen, sectioned and fixed as above. The slides were then washed in dH2O to remove the OCT for 20 mins. Haematoxylin was filtered using filter paper into a Coplin jar. Further Coplin jars were also prepared containing the following: Tap Water, Scott's Tap Water, 0.25% Eosin, 50% Ethanol, 70% Ethanol, 90% Ethanol, Ethanol and Histoclear. The slides were then placed into Haematoxylin for 2 mins, and then placed into tap water for 30 secs, Scott's Tap Water for 1 min & Eosin for 2 mins. The slides were then dehydrated through the Ethanol (1 min each) then placed into Histoclear for 2 mins and mounted using Histomount. Brightfield images were captured using a Nikon Eclipse microscope.

[2] = system: TYRP-1; test: qPCR expression analysis of melanogenesis markers in Melanoderm SEs; type: cell-based, human; conditions: 0.4% in formulation B, day 7, against formulation B only (p=0.005, t-test)
Protocol: (§1) RNA stabilized Melanoderm tissue from Example 13 was thawed on ice RNA extracted using the RNeasy extraction kit (Qiagen, UK) according to manufacturer's instructions.
(§2) To ensure efficient lysis, tissue was ground in lysis buffer in a RNase-free 1.5 ml centrifuge tube using a sterile microbiological colony picker then passed through a Qiashredder column (Qiagen, UK) before lysate was purified. To prevent carry over of gDNA to qPCR, on-column digestion using 80 μl of DNase enzyme was added (DNase on column digestion kit, Sigma, UK). RNA was eluted in a 50 μl volume of sterile elution buffer and stored at −80° C. until use. For cDNA reverse transcription 8 μl of RNA was added as template in a 20 μl final volume in a 96-well plate using the iScript Advanced cDNA Synthesis Kit for RT-qPCR (Bio-Rad, UK) according to manufacturer's instructions. Low profile 96-well PCR plates and seals for qPCR reactions were obtained from Thermofisher. For qPCR 1 μl of cDNA from each test sample and relevant controls were amplified in a 96-well plate using SsoAdvanced Universal SYBR® Green Supermix and target pigmentation specific gene primers (pigment cell-specific pre-melanosomal protein (PMEL), Tyrosinase-related protein-1 (TYRP-1) and Tyrosinase (TYR)) in a 20 μl final reaction volume. Prevalidated primers, templates and gDNA controls were sourced from Bio-Rad, UK. Prevalidated template cDNA was included as a positive control for each gene tested. Ribosomal protein-20 (RPS20) was used as a housekeeping gene control. Samples were amplified using an Applied Biosystems StepOne Plus qPCR machine and associated software. Differences in fold gene expression between treatments and untreated controls were calculated from RPS20 reference gene normalised Ct values using the ΔΔCt method (2-(ΔΔCt)). Final expression values were log 10 transformed prior to statistical analysis (unpaired t-test) using Prism software.

[3] = system: Tyrosinase (TYR); test: as above; type: cell-based, human; conditions: 0.4% in formulation B, day 7, compared to formulation B only (p=0.027, t-test)
Protocol: as §1, §2

[4] = system: PMEL; test: as above; type: cell-based, human; conditions: 0.4% in formulation B, day 7, against formulation B treatment only (p=0.015, t-test)
Protocol: as §1, §2

[5] = system: Melanoderm SEs; test: Warthin-Starry silver staining of melanin granules in Melanoderms; type: cell-based, human; conditions: in formulation B at all three concentrations (0.4%, 1%, 2%), 7 days, compared to formulation only
Protocol: Tissue from each Melanoderm of Example 13 was carefully cut from inserts using a sterile scalpel blade (no. 11) and cut in half. One half was submerged overnight at −20° C. in RNAlater solution (Qiagen, UK) for RNA stabilization. The following day excess RNAlater solution was removed, and samples stored at −80° C. until RNA extracted for qPCR. The second half of each tissue was fixed overnight in 10% neutral buffered formalin then processed for wax embedding, sectioning, and Warthin-Starry staining.
All reagents used were of research grade quality and obtained from Sigma, UK. For silver staining high purity photo-grade (>99%) Silver nitrate was used. All reagents were prepared in acidulated (citrulated) distilled water (approx. 1 ml/L of 1% Citric acid was added to distilled water to change the pH to 3.4). Other equipment used were two water baths pre-set at 43° C. and 54° C., plastic staining tubs and slide racks for incubating slides, magnetic stirrers, and calibrated pH meter.
Melanin in tissue sections was stained using the modified Warthin-Starry staining method (Warthin, A. et al., Am. J. Syph. (1920) 4:97-103; Warkel, R. et al., Am. J. Clin. Path. (1980) 73 June (6): 812-5.). Briefly, 7 μm tissue sections were cut from wax blocks and floated onto charged slides (Leica Xtra clipped corner glass slides). […]

[6] = Stability study of compositions comprising peptides 1 and 4 (HPLC purity); type: physicochemical; conditions: water-free formulations A, B and C, 20° C., 12 weeks
Protocol: Samples of the separate formulations were stored at 20° C. […] Analysis of peptide purity in ointment and PBS solutions was performed using standard HPLC-UV-DA methods when the samples were freshly prepared (time 0) and after 1, 2, 6, 8 and 12 weeks.

relative expression of Tyrosinase (TYR) (qPCR) [3] | Substance | melanin content and distribution in SE sections (Warthin Starry) ([1]; one of the donors (FIG. 3A)) | melanin content and distribution in SE sections (Warthin Starry) ([1]; second donor (FIG. 3B-D)) | relative expression of TYRP-1 (qPCR) [2] | relative expression of PMEL (qPCR) [4] | melanin in epidermal layers (Warthin-Starry) [5] | stability (peptide purity by HPLC) [6]
significant increase in expression | Asn-Ala-Ala-Met (NAAM; (1)..(4) Peptide 4) | increased the melanin content in the SEs across all layers | visibly increased melanin content | moderately significant increase in expression | greatest increase in expression which was significant | greater increase in melanin in all layers of the epidermis | 
 | Asn-Ala-His-Met (NAHM; (1)..(4) Peptide 1) |  | visibly increased melanin content |  |  | modest increase in melanin in the basal and stratum spinosum layers | stable
